Entries after “also recorded” stand apart in the source; their conditions may differ.
Tests used:
[1] = UV–vis absorption and fluorescence spectroscopy; assay type: physicochemical; settings: 10% DMSO; for λmax abs: 10-15 μM
[2] = Cell viability by Cell Titer-Blue assay; assay type: cell-based; settings: human, Capan-1 cells
Capan-1 cells [3] = assay: Subcellular colocalization, live cell imaging; assay type: cell-based, human; settings: 0.5 μM, 1 h incubation
healthy CD-1 mice = assay: In vivo biodistribution imaging in healthy mice; parameters: species or system mouse; settings: for pancreas specificity / accumulation: systemic administration
[4] = test system: genetically modified PDAC mice; assay: In vivo biodistribution and ex vivo pathology in PDAC tumor-bearing mice; parameters: species or system mouse; settings: 100 nmol systemic, 1.5 h
[5] = test system: pancreas tissue derived from healthy and PDAC mice; assay: Ex vivo staining of pancreas tissue from healthy and PDAC mice; settings: PDAC mouse pancreas tissue slides
Capan-1 cells [6] = assay: Cellular uptake in Capan-1 cells; assay type: cell-based, human; settings: within 30 min of application
[7] = acidic solution pH 1.9, 12.5 mM HCl

COC(=O)c1ccccc1-c1c2ccc(=N)cc-2oc2c1ccc1cccc(O)c12.Cl [Compound 3]
Stokes shift [1, 7]: 62 nm
brightness [1, 7]: 226
λmax em [1, 7]: 604 nm
φ (quantum yield) [1, 7]: 1.14%
λmax abs [1, 7]: 542 nm

COC(=O)c1ccccc1-c1c2ccc(=[N+](C)C)cc-2oc2c1ccc1cccc(OC)c12.[Cl-] [Compound 6]
Stokes shift ([1]; pH 7.4 phosphate buffer): 38 nm
brightness ([1]; pH 7.4 phosphate buffer): 2094
λmax em ([1]; pH 7.4 phosphate buffer): 606 nm
φ (quantum yield) ([1]; pH 7.4 phosphate buffer): 9.32%
λmax abs ([1]; pH 7.4 phosphate buffer): 568 nm

COC(=O)c1ccccc1-c1c2ccc(=O)cc-2oc2c1ccc1cccc(N(C)C)c12 [Compound 8]
λmax em ([1]; basic solution pH 12.1, 12.5 mM NaOH): 530 nm

COC(=O)c1ccccc1-c1c2ccc(=N)cc-2oc2c1ccc1cccc(N)c12.Cl [Compound 9]
Stokes shift ([1]; pH 7.4 phosphate buffer): 184 nm
brightness ([1]; pH 7.4 phosphate buffer): 25
λmax em ([1]; pH 7.4 phosphate buffer): 760 nm
φ (quantum yield) ([1]; pH 7.4 phosphate buffer): 0.18%
λmax abs ([1]; pH 7.4 phosphate buffer): 576 nm

COC(=O)c1ccccc1C1=c2cc3c4c(c2Oc2c1ccc1cccc(O)c21)CCC[N+]=4CCC3.[Cl-] [Compound 11]
Stokes shift [1, 7]: 39 nm
brightness [1, 7]: 2314
λmax em [1, 7]: 624 nm
φ (quantum yield) [1, 7]: 15.3%
λmax abs [1, 7]: 585 nm

COC(=O)c1ccccc1C1=c2cc3c4c(c2Oc2c1ccc1cccc(OC)c21)CCC[N+]=4CCC3.[Cl-] [Compound 12]
Stokes shift ([1]; pH 7.4 phosphate buffer): 40 nm
brightness ([1]; pH 7.4 phosphate buffer): 2022
λmax em ([1]; pH 7.4 phosphate buffer): 622 nm
φ (quantum yield) ([1]; pH 7.4 phosphate buffer): 11.38%
λmax abs ([1]; pH 7.4 phosphate buffer): 582 nm
IC50 at 24 h [2]: 17.8 µM
subcellular localization (Capan-1 cells [3]): extensive accumulation in the mitochondria
uptake in normal pancreas tissue as compared to MB (healthy CD-1 mice; 100 nmol systemic (MB 120 nmol)): 4 fold
fluorescence SBR in the pancreas vs surrounding organs (healthy CD-1 mice; 4 h time point): highest and most persistent fluorescence SBR in the pancreas
pancreas specificity / accumulation (healthy CD-1 mice): improved pancreas specificity
PDAC-specific fluorescence / accumulation [4]: Significantly more fluorescence; also recorded: significantly higher than that in the surrounding tissues
ex vivo staining pattern in cancerous tissue [5]: localized in the PDAC-associated ductal epithelial cells

COC(=O)c1ccccc1C1=c2cc3c4c(c2Oc2c1ccc1cccc(N)c21)CCC[N+]=4CCC3.[Cl-] [Compound 13]
Stokes shift ([1]; pH 7.4 phosphate buffer): 139 nm
brightness ([1]; pH 7.4 phosphate buffer): 85
λmax em ([1]; pH 7.4 phosphate buffer): 740 nm
φ (quantum yield) ([1]; pH 7.4 phosphate buffer): 0.66%
λmax abs ([1]; pH 7.4 phosphate buffer): 601 nm
IC50 at 24 h [2]: 26.1 µM
relative cellular uptake (Capan-1 cells [6]): greatest uptake
subcellular localization (Capan-1 cells [3]): extensive accumulation in the mitochondria
pancreas specificity / accumulation (healthy CD-1 mice): diminished pancreas accumulation

CN(C)c1ccc2nc3ccc(=[N+](C)C)cc-3sc2c1 [MB, methylene blue, reference compound]
pancreas specificity / accumulation (healthy CD-1 mice): poor penetration into normal pancreas tissue; also recorded: diminished pancreas accumulation
